Columns and labels:
[1] = target: T1, DCN5 (Homo sapiens, UniProt Q9BTE7); assay: Label-free BLI assay, DCN5; type: binding; settings: concentrations up to 10 µM
T1 construct: DCN2 (residues 62–259), DCN3 (residues 86–304), DCN4 (residues 102–292) and DCN5 (residues 47–237); His6-TEV (N, cleaved yes); made in house; host or cells: Rosetta2 cells (E. coli)
T1 sequence (Q9BTE7 47-237): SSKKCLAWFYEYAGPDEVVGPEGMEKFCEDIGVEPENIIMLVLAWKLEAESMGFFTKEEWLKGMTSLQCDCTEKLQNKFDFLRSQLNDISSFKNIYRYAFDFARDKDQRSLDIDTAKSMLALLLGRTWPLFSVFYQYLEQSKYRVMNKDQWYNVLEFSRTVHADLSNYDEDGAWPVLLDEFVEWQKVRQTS

[2] = target: T2, NEDD8 E1 (APP-BP1/Uba3) (Homo sapiens, UniProt Q8TBC4); assay: In vitro UBC12~NEDD8 thioester forming assay; type: biochemical; settings: DI-591 at concentrations up to 100 µM
T2 construct: purchased Boston Biochem
T2 sequence (Q8TBC4 1-463): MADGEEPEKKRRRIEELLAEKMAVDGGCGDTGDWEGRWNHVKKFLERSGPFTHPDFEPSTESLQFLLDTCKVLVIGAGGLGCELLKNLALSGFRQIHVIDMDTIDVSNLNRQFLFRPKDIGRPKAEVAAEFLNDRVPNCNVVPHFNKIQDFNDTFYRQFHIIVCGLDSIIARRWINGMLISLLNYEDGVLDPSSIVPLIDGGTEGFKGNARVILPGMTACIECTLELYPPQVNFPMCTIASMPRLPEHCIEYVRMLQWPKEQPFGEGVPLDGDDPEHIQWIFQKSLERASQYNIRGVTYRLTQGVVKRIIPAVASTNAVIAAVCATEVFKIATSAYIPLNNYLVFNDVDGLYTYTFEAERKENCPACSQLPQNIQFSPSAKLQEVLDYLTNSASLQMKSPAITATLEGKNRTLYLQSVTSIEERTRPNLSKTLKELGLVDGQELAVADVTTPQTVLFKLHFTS
T2 sequence (Q13564 1-534 partner): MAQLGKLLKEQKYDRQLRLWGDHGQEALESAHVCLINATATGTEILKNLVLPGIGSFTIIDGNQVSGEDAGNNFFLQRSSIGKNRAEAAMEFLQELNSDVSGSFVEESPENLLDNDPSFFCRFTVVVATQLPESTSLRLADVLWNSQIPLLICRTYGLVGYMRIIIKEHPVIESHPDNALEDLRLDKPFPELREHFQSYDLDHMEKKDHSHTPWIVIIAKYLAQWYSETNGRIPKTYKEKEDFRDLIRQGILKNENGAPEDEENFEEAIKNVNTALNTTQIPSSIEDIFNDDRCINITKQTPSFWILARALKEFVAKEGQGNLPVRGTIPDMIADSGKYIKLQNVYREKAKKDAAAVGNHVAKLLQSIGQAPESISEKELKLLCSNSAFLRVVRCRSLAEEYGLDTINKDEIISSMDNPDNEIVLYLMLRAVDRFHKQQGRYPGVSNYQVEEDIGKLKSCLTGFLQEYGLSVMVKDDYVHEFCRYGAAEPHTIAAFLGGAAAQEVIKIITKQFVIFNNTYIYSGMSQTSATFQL
Experimental: NEDD8, NEDD8 E1 (APP-BP1/Uba3) and UBC12 proteins were purchased from Boston Biochem. NEDD8 (10 μM), NEDD8 E1 (25 nM), and UBC12 (2 μM) were incubated in Tris-HCl (pH 7.4, 50 mM), MgCl2 (5 mM), DTT (0.5 mM) and BSA (0.1 mg/ml), with a tested compound at 25 °C for 10 min. Reactions were initiated by addition of 2 mM ATP (or distilled H2O) and ran for 5 min at 25 °C. 1 M DTT (or distilled H2O) was added to the reaction mixtures which were then kept on ice for 1 min followed by addition of SDS loading buffer (without DTT). The products were separated by SDS–PAGE, visualized by Coomassie stain and quantified by ImageLab (Bio-Rad).
1 Supplementa ry Figure 3:
3 Supplementary Figure 3. In vitro U BC12~N EDD8 thio ester forming assay.N EDD8,
4 NEDD8 E1 (APP -BP 1/Uba3) and UBC12 were purchased from Boston Biochem. 10μ M
5 NEDD8, 25nM N EDD8 E1,and 2μ M UBC12 were incubated in 50mM Tris-HCl (pH 7.4), 5mM
6 M gC l 2, 0.5mM DTT, and 0.1mg/ml BSA, with indicated compounds at 25℃ for 10min.
7 Reactions were initiated by addition o f 2mM ATP (or dH2O) and w ere run for 5min at 25℃ .
8 Reaction mixtures were t hen added with 1M DTT (or dH 2O) and kept on ice for 1min followed
9 by addition of SDS Loading buffer (without DTT). The products were s eparated b y SDS-PAGE,
10 visualized by Coomassie stain and quantified using an ImageLab imager ( Bio-Rad). […]

[3] = system: NQO1 and HO1 mRNA; assay: qRT-PCR of NRF2-regulated genes in THLE2 cells; type: cell-based; settings: THLE2, 10 µM
Source text: (§1) Total RNA in treated cells was isolated with the RNeasy Mini Kit (Qiagen, Germantown, MD). RNA was reverse transcribed into complementary DNA (cDNA) using high capacity RNA-to-cDNA kit (Applied Biosystems, Carlsbad, California). […] GAPDH was used as an internal reference. […] Error bars correspond to SD from three independent experiments.

[4] = system: neddylation of cullin 3; assay: Western blotting of neddylated and un-neddylated cullin 3 in cells; type: cell-based; settings: THLE2 liver cells, DI-591 at 10 µM
Source text: (§2) Treated cells were lysed by RIPA buffer supplemented with protease and phosphatase inhibitors. The expression level of indicated proteins was examined by immunoblotting analysis. GAPDH was used as the loading control.

[5] = Equilibrium aqueous solubility, small-scale shake-flask method; settings: for solubility at 24 h: thermodynamic from solid
Experimental: The equilibrium aqueous solubility of an individual compound at different pH values was determined with a small-scale shake-flask method in Eppendorf tubes. Compounds were added as powder in excess to Britton-Robinson buffer at pH 2.0 or phosphate buffer at pH 7.4 until heterogeneous suspensions were obtained. Suspensions containing excessive compound powder were sonicated in a water bath for 30 min followed by incubation at room temperature with shaking for 24 h to achieve thermodynamic equilibrium. […] Supernatants obtained were filtered using Millipore MultiScreen filter plates equipped with 0.45 µm membranes. Compound concentrations in the saturated solutions were measured by UV spectroscopy at the maximum absorption wavelengths of each compound that were pre-determined by a spectrum scan.

[6] = target: T3, DCN3 (Homo sapiens, UniProt Q8IWE4); assay: Label-free BLI assay, DCN3; type: binding; settings: concentrations up to 10 µM
T3 construct: DCN2 (residues 62–259), DCN3 (residues 86–304), DCN4 (residues 102–292) and DCN5 (residues 47–237); His6-TEV (N, cleaved yes); made in house; host or cells: Rosetta2 cells (E. coli)
T3 sequence (Q8IWE4 86-304): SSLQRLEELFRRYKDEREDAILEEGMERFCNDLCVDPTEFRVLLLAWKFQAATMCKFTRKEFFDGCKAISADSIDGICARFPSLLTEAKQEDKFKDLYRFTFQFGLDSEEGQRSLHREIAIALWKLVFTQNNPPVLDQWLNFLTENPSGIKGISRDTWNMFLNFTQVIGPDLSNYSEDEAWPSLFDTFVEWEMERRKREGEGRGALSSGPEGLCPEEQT

[7] = target: T4, DCN4 (Homo sapiens, UniProt Q92564); assay: Label-free BLI assay, DCN4; type: binding; settings: concentrations up to 10 µM
T4 construct: DCN2 (residues 62–259), DCN3 (residues 86–304), DCN4 (residues 102–292) and DCN5 (residues 47–237); His6-TEV (N, cleaved yes); made in house; host or cells: Rosetta2 cells (E. coli)
T4 sequence (Q92564 102-292): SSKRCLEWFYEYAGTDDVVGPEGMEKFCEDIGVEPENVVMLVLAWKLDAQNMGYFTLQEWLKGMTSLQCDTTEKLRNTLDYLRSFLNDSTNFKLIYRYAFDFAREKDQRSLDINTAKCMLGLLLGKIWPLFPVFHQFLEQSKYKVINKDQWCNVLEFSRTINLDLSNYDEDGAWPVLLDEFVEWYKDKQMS

[8] = system: neddylation of cullin 1 and other cullins; assay: Western blotting of neddylated and un-neddylated cullin 1 and other cullins in cells; type: cell-based; settings: THLE2 liver cells, up to 24 h, DI-591 10 µM, MLN4924 0.3 µM
Source text: as §2

[9] = system: p21, Bim, CDT1; assay: Western blotting of cullin 1 and 4A CRL substrates in cells; type: cell-based; settings: western blot, 24 h
Source text: as §2

[10] = system: THLE2 cells and five additional cancer cell lines; assay: Cell viability, WST assay, panel of 6 cell lines; type: cell-based; settings: DI-591 at concentrations up to 20 µM
[11] = system: NRF2; assay: Western blotting of NRF2 protein in cells; type: cell-based; settings: western blot, 24 h
Source text: as §2

[12] = system: NRF2 mRNA; assay: qRT-PCR of NRF2 mRNA in THLE2 cells; type: cell-based; settings: THLE2, 10 µM
Source text: as §1

binding to DCN5 (in words) [1]: no appreciable binding
inhibition of UBC12 neddylation (E1 activity), in words [2]: no such effect
aqueous solubility (in words) [5]: excellent
solubility at 24 h ([5]; Britton-Robinson buffer, pH 2, aqueous buffer): > 20 mM
solubility at 24 h ([5]; Britton-Robinson buffer, pH 2.02, aqueous buffer): > 20 mM
solubility at 24 h ([5]; phosphate buffer, pH 7.4, aqueous buffer): > 20 mM
binding to DCN3 (in words) [6]: no appreciable binding
binding to DCN4 (in words) [7]: no appreciable binding
SMILES: CCC(=O)N[C@@H](Cc1nc2ccc(C(C)C)cc2s1)C(=O)N[C@H](CNC(=O)CCN1CCOCC1)C1CCCCC1 [DI-591]
mRNA levels of NQO1 and HO1 (in words) [3]: robustly increases
time to complete depletion of neddylated cullin 3 [4]: ≤ 5 min
effect on neddylation of cullin 1, time course (in words) [8]: no effect
protein levels of p21, Bim and CDT1 (in words) [9]: no or minimal effect
cytotoxicity (in words) [10]: no significant cytotoxicity
NRF2 protein level (in words) [11]: dose dependently increases
mRNA level of NRF2 (in words) [12]: no effect

Source: PMC5658359, “A potent small-molecule inhibitor of the DCN1-UBC12 interaction that selectively blocks cullin 3 neddylation” (Nature Communications, 2017)
